Data taken from patent publication EP4722201A1, “3-PHENYLISOXAZOLINE-5-CARBOXAMIDE COMPOUND, AND PREPARATION METHOD THEREFOR, HERBICIDAL COMPOSITION THEREOF AND USE THEREOF” (Jiangsu Flag Chemical Industry Co., Ltd, priority 2023, dated 2024).

Assays:
Assay in all cases: Indoor herbicide activity determination, Seed Treatment; pre-emergence (soil spray)
Format in all cases: in vivo
Eleusine indica = system: Eleusine indica
Excerpt: (§1) The testing method for herbicide activity of the compound of the present invention was as follows:
(§2) Seed Treatment; pre-emergence: quantitative seeds of gramineous weeds (Echinochloa crusgalli, Eleusine indica, Digitaria sanguinalis, Alopecurus japonicus, Beckmannia syzigachne, Leptochloa chinensis, Polypogon fugax, Alopecurus aequalis, Lolium multiflorum, Poa annua, Aegilops tauschii, Avena fatua, Alopecurus myosuroides, Alopecurus japonicus and Alopecurus aequalis), broad-leaved weeds (Eclipta prostrata, Amaranthus retroflexus, Rorippa indica, Malachium aquaticum, Veronica polita, Conyza canadensis, Sesbania cannabina, Sagittariatrifolia and Schoenoplectiella juncoides), and Cyperus iria were sown in plastic pots having a diameter of 7 cm and holes at the bottom and filled with nutrient soil (sandy soil, pH 6.1, organic matter 1%) respectively, the seeds were covered with an appropriate amount of soil after being sown, then the soil was wetted with water from the bottom, the seeds were cultured in a constant-temperature illuminated culture room for 24 h, and the soil was sprayed by using a 3WP-2000 traveling spray tower produced by the Nanjing Institute of Agricultural Mechanization of the Ministry of Agriculture, where a rotational speed of a main shaft was 96 mm/r, a spray height was 300 mm, an effective spraying range of a nozzle was 350 mm, a spray area was 0.35 m^2, and a flow rate at the nozzle was 390 mL/min.
(§3) Post-emergence: an appropriate quantity of seeds of gramineous weeds (Echinochloa crusgalli, Eleusine indica, Digitaria sanguinalis, Alopecurus japonicus, Beckmannia syzigachne, Leptochloa chinensis, Polypogon fugax, Alopecurus aequalis, Lolium multiflorum, Poa annua, Aegilops tauschii, Avena fatua, Alopecurus myosuroides, Alopecurus japonicus and Alopecurus aequalis), broad-leaved weeds (Eclipta prostrata, Amaranthus retroflexus, Rorippa indica, Malachium aquaticum, Veronica polita, Conyza canadensis, Sesbania cannabina, Sagittariatrifolia and Schoenoplectiella juncoides), and Cyperus iria were sown in plastic pots having a diameter of 7 cm and holes at the bottom and filled with nutrient soil (sandy soil, pH 6.1, organic matter 1%) respectively, the seeds were covered with an appropriate amount of soil after being sown, then the soil was wetted with water from the bottom, the seeds were cultured in a constant-temperature illuminated culture room until a 2-4 leaf stage, and stems and leaves underwent spray treatment. After the treatment, the test materials were placed in a laboratory and cultured in the constant-temperature illuminated culture room after the liquid was naturally dry in the shade, and results were determined 21 days later. Inhibition rate of fresh weight % = (1−(fresh weight of treated plants)/(fresh weight of control plants)) × 100% [formula]

Leptochloa chinensis = system: Leptochloa chinensis
Excerpt: as §1, §2, §3

Alopecurus japonicus = system: Alopecurus japonicus
Excerpt: as §1, §2, §3

Eclipta prostrata = conditions: read-out: Herbicidal activities (inhibition rate) Eclipta prostrata; for inhibition at 60 g/ha: 60 g a.i./ha
Excerpt: as §1, §2, §3

Lolium multiflorum = system: Lolium multiflorum
Excerpt: as §1, §2, §3

Digitaria sanguinalis = conditions: read-out: Herbicidal activities (inhibition rate) Digitaria sanguinalis; for inhibition at 60 g/ha: 60 g a.i./ha
Excerpt: as §1, §2, §3

Alopecurus myosuroides = system: Alopecurus myosuroides
Excerpt: as §1, §2, §3

Cyperus iria = conditions: read-out: Herbicidal activities (inhibition rate) Cyperus iria; for inhibition at 60 g/ha: 60 g a.i./ha
Excerpt: as §1, §2, §3

Aegilops tauschii = conditions: 60 g a.i./ha, read-out: Herbicidal activities (inhibition rate) Aegilops tauschii
Excerpt: as §1, §2, §3

Row | SMILES | Herbicidal activities, Eleusine indica (inhibition rate class) (Eleusine indica; Dosage 120 g a.i./ha) | Herbicidal activities, Leptochloa chinensis (inhibition rate class) (Leptochloa chinensis; Dosage 120 g a.i./ha) | Herbicidal activities, Alopecurus japonicus (inhibition rate class) (Alopecurus japonicus; Dosage 120 g a.i./ha) | inhibition at 60 g/ha (Eclipta prostrata) | Herbicidal activities, Lolium multiflorum (inhibition rate class) (Lolium multiflorum; Dosage 120 g a.i./ha) | inhibition at 60 g/ha (Digitaria sanguinalis) | Herbicidal activities, Alopecurus myosuroides (inhibition rate class) (Alopecurus myosuroides; Dosage 120 g a.i./ha) | inhibition at 60 g/ha (Cyperus iria) | Herbicidal activity (inhibition rate class), Eleusine indica (Eleusine indica; Dosage 120 g a.i./ha) | Herbicidal activity (inhibition rate class), Leptochloa chinensis (Leptochloa chinensis; Dosage 120 g a.i./ha) | other results
1 | C=CC1(C(=O)N[C@H]2C[C@@H](C(=O)OC)C2)CC(c2cc(F)cc(F)c2)=NO1 (stereo partly shown) [I-3] | – | – | – | – | – | – | – | – | – | – | Herbicidal activities, Eleusine indica (inhibition rate class) (Eleusine indica; Dosage 240 g a.i./ha): A (A indicates that the inhibition rate was greater than or equal to 80% to 100%); Herbicidal activities, Leptochloa chinensis (inhibition rate class) (Leptochloa chinensis; Dosage 240 g a.i./ha): A (A indicates that the inhibition rate was greater than or equal to 80% to 100%); Herbicidal activities, Alopecurus japonicus (inhibition rate class) (Alopecurus japonicus; Dosage 240 g a.i./ha): A (A indicates that the inhibition rate was greater than or equal to 80% to 100%); inhibition at 120 g/ha (Eclipta prostrata; 120 g a.i./ha): 80 to 100%; Herbicidal activities, Lolium multiflorum (inhibition rate class) (Lolium multiflorum; Dosage 240 g a.i./ha): A (A indicates that the inhibition rate was greater than or equal to 80% to 100%); inhibition at 120 g/ha (Digitaria sanguinalis; 120 g a.i./ha): 80 to 100%; Herbicidal activities, Alopecurus myosuroides (inhibition rate class) (Alopecurus myosuroides; Dosage 240 g a.i./ha): A (A indicates that the inhibition rate was greater than or equal to 80% to 100%); inhibition at 120 g/ha (Cyperus iria; 120 g a.i./ha): 80 to 100%
2 | C=C[C@]1(C(=O)N[C@H]2C=C[C@@H](C(=O)O)C2)CC(c2cc(F)cc(C(F)(F)F)c2)=NO1 [I-426] | A (A indicates that the inhibition rate was greater than or equal to 80% to 100%) | A (A indicates that the inhibition rate was greater than or equal to 80% to 100%) | A (A indicates that the inhibition rate was greater than or equal to 80% to 100%) | 60 to 80% | A (A indicates that the inhibition rate was greater than or equal to 80% to 100%) | 80 to 100% | A (A indicates that the inhibition rate was greater than or equal to 80% to 100%) | 80 to 100% | – | – | –
3 | C=C[C@]1(C(=O)N[C@H]2C=C[C@@H](C(=O)OCCC)C2)CC(c2cc(F)cc(C(F)(F)F)c2)=NO1 [I-437] | A (A indicates that the inhibition rate was greater than or equal to 80% to 100%) | A (A indicates that the inhibition rate was greater than or equal to 80% to 100%) | A (A indicates that the inhibition rate was greater than or equal to 80% to 100%) | 60 to 80% | A (A indicates that the inhibition rate was greater than or equal to 80% to 100%) | 80 to 100% | A (A indicates that the inhibition rate was greater than or equal to 80% to 100%) | 80 to 100% | – | – | –
4 | C=C[C@]1(C(=O)N[C@H]2C=C[C@@H](C(=O)OC)C2)CC(c2cc(F)cc(C(F)(F)F)c2)=NO1 [I-428] | A (A indicates that the inhibition rate was greater than or equal to 80% to 100%) | A (A indicates that the inhibition rate was greater than or equal to 80% to 100%) | A (A indicates that the inhibition rate was greater than or equal to 80% to 100%) | 60 to 80% | A (A indicates that the inhibition rate was greater than or equal to 80% to 100%) | 80 to 100% | A (A indicates that the inhibition rate was greater than or equal to 80% to 100%) | 80 to 100% | – | – | –
5 | O=C(OCC1CCCC1)[C@@H]1C=C[C@H](NC(=O)[C@@]2(C(F)(F)F)CC(c3cc(F)cc(C(F)(F)F)c3)=NO2)C1 [I-519] | – | – | – | 80 to 100% | – | 80 to 100% | – | 80 to 100% | A (A indicates that the inhibition rate was greater than or equal to 80% to 100%) | A (A indicates that the inhibition rate was greater than or equal to 80% to 100%) | Herbicidal activity (inhibition rate class), Alopecurus japonicus (Alopecurus japonicus; Dosage 120 g a.i./ha): A (A indicates that the inhibition rate was greater than or equal to 80% to 100%); Herbicidal activity (inhibition rate class), Lolium multiflorum (Lolium multiflorum; Dosage 120 g a.i./ha): A (A indicates that the inhibition rate was greater than or equal to 80% to 100%); Herbicidal activity (inhibition rate class), Alopecurus myosuroides (Alopecurus myosuroides; Dosage 120 g a.i./ha): A (A indicates that the inhibition rate was greater than or equal to 80% to 100%)
6 | C[C@]1(C(=O)N[C@H]2C=C[C@@H](C(=O)OCCBr)C2)CC(c2cc(F)cc(C(F)(F)F)c2)=NO1 [I-501] | – | – | – | 60 to 80% | – | 80 to 100% | – | 60 to 80% | A (A indicates that the inhibition rate was greater than or equal to 80% to 100%) | A (A indicates that the inhibition rate was greater than or equal to 80% to 100%) | –
7 | C=C[C@]1(C(=O)N[C@H]2C=C[C@@H](C(=O)OCCOC)C2)CC(c2cc(F)cc(C(F)(F)F)c2)=NO1 [I-443] | A (A indicates that the inhibition rate was greater than or equal to 80% to 100%) | A (A indicates that the inhibition rate was greater than or equal to 80% to 100%) | – | 80 to 100% | – | 80 to 100% | – | 80 to 100% | – | – | –
8 | COC(=O)[C@@H]1C=C[C@H](NC(=O)[C@@]2(C(F)(F)F)CC(c3cc(Cl)cc(C(F)(F)F)c3)=NO2)C1 [I-524] | – | – | – | 60 to 80% | – | 80 to 100% | – | 80 to 100% | A (A indicates that the inhibition rate was greater than or equal to 80% to 100%) | A (A indicates that the inhibition rate was greater than or equal to 80% to 100%) | Herbicidal activity (inhibition rate class), Alopecurus japonicus (Alopecurus japonicus; Dosage 120 g a.i./ha): A (A indicates that the inhibition rate was greater than or equal to 80% to 100%); Herbicidal activity (inhibition rate class), Alopecurus myosuroides (Alopecurus myosuroides; Dosage 120 g a.i./ha): B (B indicates that the inhibition rate was greater than or equal to 60% to less than 80%)
9 | C=C[C@]1(C(=O)N[C@H]2C[C@@H](C(=O)OCC3CC3)C2)CC(c2cc(F)cc(Cl)c2)=NO1 [I-35] | A (A indicates that the inhibition rate was greater than or equal to 80% to 100%) | A (A indicates that the inhibition rate was greater than or equal to 80% to 100%) | A (A indicates that the inhibition rate was greater than or equal to 80% to 100%) | 60 to 80% | A (A indicates that the inhibition rate was greater than or equal to 80% to 100%) | – | A (A indicates that the inhibition rate was greater than or equal to 80% to 100%) | 60 to 80% | – | – | inhibition at 60 g/ha (Aegilops tauschii): 60 to 80%
10 | C=C[C@]1(C(=O)N[C@H]2C[C@@H](C(=O)O[C@H](C)COC)C2)CC(c2cc(F)cc(Cl)c2)=NO1 [I-33] | A (A indicates that the inhibition rate was greater than or equal to 80% to 100%) | A (A indicates that the inhibition rate was greater than or equal to 80% to 100%) | A (A indicates that the inhibition rate was greater than or equal to 80% to 100%) | 80 to 100% | A (A indicates that the inhibition rate was greater than or equal to 80% to 100%) | – | A (A indicates that the inhibition rate was greater than or equal to 80% to 100%) | 60 to 80% | – | – | inhibition at 60 g/ha (Aegilops tauschii): 60 to 80%
